Assay results: article PMC7162838, “Production of multiple bacteriocins, including the novel bacteriocin gassericin M, by Lactobacillus gasseri LM19, a strain isolated from human milk” (Applied Microbiology and Biotechnology, 2020)
Read-outs that look alike come from different tables or passages of the source.

Test system: L. bulgaricus DPC6901
Test: Well-diffusion assay of naturally produced and synthetic peptides
Format: cell-based, Lactobacillus delbrueckii subsp. bulgaricus
Conditions: for antimicrobial activity of synthetic peptides: synthetic peptides resuspended in milli Q water at 1 mg/ml
[1] = fractions from HPLC fractionation I and II of L. gasseri LM19 cell extracts and supernatant, well-diffusion, Fig. 4a

| Sequence | antimicrobial activity of HPLC fractions containing the peptide mass [1] | antimicrobial activity of HPLC fractions containing the peptide mass | antimicrobial activity of synthetic peptides (well-diffusion, Fig. 4a) |
| --- | --- | --- | --- |
| MALKTLEKHELRNVMGGNKWGNAVIGAATGATRGVSWCRGFGPWGMTACGLGGAAIGGYLGYKSN [GamX, class IIb bacteriocin peptide of L. gasseri LM19 cluster 3, purified from culture and synthesised] | low activity | – | – |
| MIEKVSKNELSRIYGGNNVNWGSVAGSCGKGAVMGIYFGNPILGCANGAATSLVLQTASGIYKNYQKKR [Bact_2, bacteriocin peptide of L. gasseri LM19 cluster 1, identical to gassericin S peptide GasX] | – | largest zones of inhibition | highest activity |
| MKNFNTLSFETLANIVGGRNNWAANIGGVGGATVAGWALGNAVCGPACGFVGAHYVPIAWAGVTAATGGFGKIRK [GamA, class IIb bacteriocin peptide of L. gasseri LM19 cluster 3, purified from culture and synthesised] | largest zones of inhibition | – | highest activity |
| MKTLNEQELTQIVGGKGNKGINWANVRCASAVTIGALGGGLAGPGGMVGGFLLGSGACF [GamY, peptide of the novel two-component bacteriocin gassericin M] | – | clear activity | did not show activity |
| MKVLNECQLQTVVGGKNWSVAKCGGTIGTNIAIGAWRGARAGSFFGQPVSVGAGALIGASAGAIGGSVQCVGWLAGGGR [Bact_1, bacteriocin peptide of L. gasseri LM19 cluster 1, identical to gassericin S peptide GasA] | – | – | lower than that from fractions containing the Bact_1 mass |
| MRKINKEELVEITGGFNAAKCAVGTAGGAFSIARGSAAFGVPGMVIGGILGGAAGALASCK [GamM, peptide of the novel two-component bacteriocin gassericin M] | – | low activity | notable |
